Reference: patent US12240840B2, “Amide-substituted heterocyclic compounds for the treatment of conditions related to the modulation of IL-12, IL-23 and/or IFN-alpha” (BRISTOL-MYERS SQUIBB COMPANY, priority 2018, dated 2025)

Tested on: IFNα-induced pSTAT5 (pY694) in CD3 positive cells of human whole blood
Test: IFNα-Induced STAT Phosphorylation in Human Whole Blood
Format: cell-based
Settings: Homo sapiens, 1 h compound incubation, 1000 U/mL recombinant human IFNα A/D for 15 min, pSTAT5 in CD3 positive population, read-out: Human WB IFNα-Induced Stat Phosph. (IC50)
Method in brief: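 Read-out is median fluorescence intensity of pSTAT5 (pY694) in the CD3-positive gate, by flow cytometry after fix/lyse and permeabilization. Before that, whole human blood anticoagulated with EDTA or ACD-A received compound for an hour and 1000 U/mL IFNα A/D for 15 min.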

IC50 [nM]	Compound
23	[2H]C([2H])([2H])NC(=O)c1nnc(Nc2ccc(C)nn2)cc1Nc1cccc(-c2ncc(C(C)O)s2)c1OC (stereo not shown) [Example 392]
180	[2H]C([2H])([2H])NC(=O)c1nnc(Nc2ccc(C)nn2)cc1Nc1cccc(-c2ncc(CO)s2)c1OC [Example 393]
420	[2H]C([2H])([2H])NC(=O)c1nnc(NC(=O)C2CC2)cc1Nc1cccc(-c2ncc(COCC)s2)c1OC [Example 394]
80	COc1c(Nc2cc(NC(=O)C3CC3)nnc2C(N)=O)cccc1-c1ncc(CN2CCN(S(C)(=O)=O)CC2)s1 [Example 395]
120	COc1c(Nc2cc(NC(=O)C3CC3)nnc2C(N)=O)cccc1-c1ncc(C(=O)NC2CCCCC2)s1 [Example 396]
40	CCN(CC)C1CCC(NC(=O)c2cnc(-c3cccc(Nc4cc(NC(=O)C5CC5)nnc4C(N)=O)c3OC)s2)CC1 (stereo not shown) [Example 397]
180	COCCN1CCN(Cc2cnc(-c3cccc(Nc4cc(NC(=O)C5CC5)nnc4C(N)=O)c3OC)s2)CC1 [Example 399]
30	COc1c(Nc2cc(NC(=O)C3CC3)nnc2C(N)=O)cccc1-c1ncc(C(=O)N2CCC(CCO)CC2)s1 [Example 400]
180	COc1c(Nc2cc(NC(=O)C3CC3)nnc2C(N)=O)cccc1-c1ncc(CN2CCOCC2)s1 [Example 401]
40	CCS(=O)(=O)N1CCN(C(=O)c2cnc(-c3cccc(Nc4cc(NC(=O)C5CC5)nnc4C(N)=O)c3OC)s2)CC1 [Example 402]
190	COc1c(Nc2cc(NC(=O)C3CC3)nnc2C(N)=O)cccc1-c1ncc(C(=O)N2CCCCC2)s1 [Example 403]
110	COc1c(Nc2cc(NC(=O)C3CC3)nnc2C(N)=O)cccc1-c1ncc(C(=O)NC(C)C)s1 [Example 404]
90	COc1c(Nc2cc(NC(=O)C3CC3)nnc2C(N)=O)cccc1-c1ncc(C(=O)NC2CCC(N(C)C)CC2)s1 (stereo not shown) [Example 405]
180	COc1c(Nc2cc(NC(=O)C3CC3)nnc2C(N)=O)cccc1-c1nccs1 [Example 406]
160	COc1c(Nc2cc(NC(=O)C3CC3)nnc2C(N)=O)cccc1-c1ncc(C(=O)N2CCCC2)s1 [Example 407]
110	COCCNC(=O)c1cnc(-c2cccc(Nc3cc(NC(=O)C4CC4)nnc3C(N)=O)c2OC)s1 [Example 408]
> 10000	COc1c(Nc2cc(NC(=O)C3CC3)nnc2C)cccc1-c1ncn(C)n1 [Example 409, N-(5-((2-methoxy-3-(1-methyl-1H-1,2,4-triazol-3-yl)phenyl)amino)-6-methylpyridazin-3-yl)cyclopropanecarboxamide]
260	[2H]C([2H])([2H])NC(=O)c1nnc(NC(=O)C2CC2)cc1Nc1cccc(-c2ncc(CC(=O)N(C)C)o2)c1OC [Example 410, 6-(cyclopropanecarboxamido)-4-((3-(5-(2-(dimethylamino)-2-oxoethyl)oxazol-2-yl)-2-methoxyphenyl)amino)-N-(methyl-d3)pyridazine-3-carboxamide]
1800	[2H]C([2H])([2H])NC(=O)c1nnc(NC(=O)C2CC2)cc1Nc1cccc(-c2ncc(CC(=O)NCCOC)o2)c1OC [Example 411]
4620	[2H]C([2H])([2H])NC(=O)c1nnc(NC(=O)C2CC2)cc1Nc1cccc(-c2ncc(CC(=O)NCCC3CCCN3C)o2)c1OC (stereo not shown) [Example 412]

IC50 [nM]	Compound
170	COc1c(Nc2cc(NC(=O)C3CC3)nnc2C(N)=O)cccc1-c1ncc(C(=O)N(C)C)o1 [Example 413]
310	COc1c(Nc2cc(NC(=O)C3CC3)nnc2C(N)=O)cccc1-c1ncc(C(=O)N2CCOCC2)o1 [Example 414]
40	COc1c(Nc2cc(NC(=O)C3CC3)nnc2C(N)=O)cccc1-c1ncc(C(=O)NCCC2CCCN2C)o1 (stereo not shown) [Example 415]
460	COc1c(Nc2cc(NC(=O)C3CC3)nnc2C(N)=O)cccc1-c1ncc(C(=O)N2CCC(CCO)CC2)o1 [Example 416]
130	COc1c(Nc2cc(NC(=O)C3CC3)nnc2C(N)=O)cccc1-c1ncc(C(=O)N2CCC(CO)CC2)o1 [Example 418]
200	COc1c(Nc2cc(NC(=O)C3CC3)nnc2C(N)=O)cccc1-c1ncc(C(=O)N2CCC(O)CC2)o1 [Example 419]
220	COc1c(Nc2cc(NC(=O)C3CC3)nnc2C(N)=O)cccc1-c1ncc(C(=O)NCC(O)CO)o1 (stereo not shown) [Example 420]
290	COc1c(Nc2cc(NC(=O)C3CC3)nnc2C(N)=O)cccc1-c1ncc(C(=O)NCc2cccc(Cl)c2)o1 [Example 421]
590	[2H]C([2H])([2H])NC(=O)c1nnc(NC(=O)C2CC2)cc1Nc1cccc(-c2cn(CCN3CCOCC3)nn2)c1OC [Example 422, 6-(cyclopropanecarboxamido)-4-((2-methoxy-3-(1-(2-morpholinoethyl)-1H-1,2,3-triazol-4-yl)phenyl)amino)-N-(methyl-d3)pyridazine-3-carboxamide]
200	[2H]C([2H])([2H])NC(=O)c1nnc(Nc2ccc(C)nn2)cc1Nc1cccc(-c2cn(CCN3CCOCC3)nn2)c1OC [Example 424]
670	[2H]C([2H])([2H])NC(=O)c1nnc(Nc2cc(C(C)(C)O)ccn2)cc1Nc1cccc(-c2cn(CCN3CCOCC3)nn2)c1OC [Example 425]
30	[2H]C([2H])([2H])NC(=O)c1nnc(NC(=O)C2CC2)cc1Nc1cccc(-c2cnn(CC(=O)NCCOC)n2)c1OC [Example 426, 6-(cyclopropanecarboxamido)-4-((2-methoxy-3-(2-(2-((2-methoxyethyl)amino)-2-oxoethyl)-2H-1,2,3-triazol-4-yl)phenyl)amino)-N-trideuteromethylpyridazine-3-carboxamide]
90	[2H]C([2H])([2H])NC(=O)c1nnc(NC(=O)C2CC2)cc1Nc1cccc(-c2cnn(CC(=O)NCC)n2)c1OC [Example 427]
2630	[2H]C([2H])([2H])NC(=O)c1nnc(NC(=O)C2CC2)cc1Nc1cccc(-c2cnn(CC(=O)NCC(CC)CC)n2)c1OC [Example 428]
190	[2H]C([2H])([2H])NC(=O)c1nnc(NC(=O)C2CC2)cc1Nc1cccc(-c2cnn(CC(=O)NCCO)n2)c1OC [Example 429]
> 10000	[2H]C([2H])([2H])NC(=O)c1cnc(NC(=O)C2CC2)cc1Nc1cccc(-c2cnn(CCNC(=O)OC(C)(C)C)n2)c1OC [Example 430]
> 10000	[2H]C([2H])([2H])NC(=O)c1nnc(NC(=O)C2CC2)cc1Nc1cccc(-c2cnn(CCNC(=O)OC(C)(C)C)n2)c1OC [Example 431]
300	[2H]C([2H])([2H])NC(=O)c1nnc(NC(=O)C2CC2)cc1Nc1cccc(-c2cnn(CCNC(C)=O)n2)c1OC [Example 432]
160	[2H]C([2H])([2H])NC(=O)c1nnc(NC(=O)C2CC2)cc1Nc1cccc(-c2cnn(CCNC(=O)COC)n2)c1OC [Example 433]
160	[2H]C([2H])([2H])NC(=O)c1nnc(NC(=O)C2CC2)cc1Nc1cccc(-c2cnn(CCNS(C)(=O)=O)n2)c1OC [Example 434]

IC50 [nM]	Compound
260	[2H]C([2H])([2H])NC(=O)c1nnc(NC(=O)C2CC2)cc1Nc1cccc(-c2cnn(CCNC(=O)CC#N)n2)c1OC [Example 435]
300	[2H]C([2H])([2H])NC(=O)c1cnc(NC(=O)C2CC2)cc1Nc1cccc(-c2cnn(CCNS(C)(=O)=O)n2)c1OC [Example 436]
2410	[2H]C([2H])([2H])NC(=O)c1nnc(NC(=O)C2CC2)cc1Nc1cccc(-c2cnn(CCNC(=O)C3(C#N)CC3)n2)c1OC [Example 437]
2890	[2H]C([2H])([2H])NC(=O)c1nnc(NC(=O)C2CC2)cc1Nc1cccc(-c2cnn(CCNC(=O)CC3CCCO3)n2)c1OC (stereo not shown) [Example 438]
440	[2H]C([2H])([2H])NC(=O)c1cnc(NC(=O)C2CC2)cc1Nc1cccc(-c2cnn(CCNC(C)=O)n2)c1OC [Example 439]
1160	[2H]C([2H])([2H])NC(=O)c1cnc(NC(=O)C2CC2)cc1Nc1cccc(-c2cnn(CCNC(=O)CC#N)n2)c1OC [Example 440]
290	[2H]C([2H])([2H])NC(=O)c1cnc(NC(=O)C2CC2)cc1Nc1cccc(-c2cnn(CCNC(=O)COC)n2)c1OC [Example 441]
80	[2H]C([2H])([2H])NC(=O)c1cnc(NC(=O)C2CC2)cc1Nc1cccc(-c2cnn(CCN)n2)c1OC [Example 442]
270	[2H]C([2H])([2H])NC(=O)c1cnc(NC(=O)C2CC2)cc1Nc1cccc(-c2cnn(CCNC(=O)C(C)(C)O)n2)c1OC [Example 443]
2130	COc1c(Nc2cc(NC(=O)C3CC3)ncc2C(N)=O)cccc1-c1cnn(CCNC(=O)OC(C)(C)C)n1 [Example 444]
150	COCC(=O)NCCn1ncc(-c2cccc(Nc3cc(NC(=O)C4CC4)ncc3C(N)=O)c2OC)n1 [Example 445]
270	COc1c(Nc2cc(NC(=O)C3CC3)ncc2C(N)=O)cccc1-c1cnn(CCNC(=O)CC#N)n1 [Example 446]
160	[2H]C([2H])([2H])NC(=O)c1nnc(NC(=O)C2CC2)cc1Nc1cccc(-c2cnn(CCNC(=O)CO)n2)c1OC [Example 447]
140	[2H]C([2H])([2H])NC(=O)c1nnc(NC(=O)C2CC2)cc1Nc1cccc(-c2cnn(CCN)n2)c1OC [Example 448]
200	[2H]C([2H])([2H])NC(=O)c1nnc(NC(=O)C2CC2)cc1Nc1cccc(-c2cnn(CCO)n2)c1OC [Example 450]
60	[2H]C([2H])([2H])NC(=O)c1nnc(Nc2ccc(OC)nn2)cc1Nc1cccc(-c2cnn(C)n2)c1OC [Example 451, 4-((2-methoxy-3-(2-methyl-2H-1,2,3-triazol-4-yl)phenyl)amino)-6-((6-methoxypyridazin-3-yl)amino)-N-(methyl-d3)pyridazine-3-carboxamide]
150	[2H]C([2H])([2H])NC(=O)c1cnc(Nc2ccc(OC)nn2)cc1Nc1cc(F)cc(-c2cnn(C)n2)c1OC [Example 452]
60	[2H]C([2H])([2H])NC(=O)c1cnc(NC(=O)C2CC2)cc1Nc1cc(F)cc(-c2cnn(C)n2)c1OC [Example 453]
